Structures can show the parent of a compound that is named as a salt.
system: HMOX1; assay: HMOX1 Protein Assay (immunostaining of HO-1 in NHLF cells, GE InCell 1000); assay type: cell-based; conditions: Homo sapiens, fold change above DMSO treated cells, 5 μM compound, 16 h
Summary of the method: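 NHLF cells seeded overnight in FGM-2, then exposed to compound or DMSO vehicle for 16 h, fixed, and immunostained for HO-1 with Hoechst nuclear counterstain; imaged on InCell 1000. Values are fold change over DMSO-treated cells, generally at 5 μM (0.8% DMSO), with asterisked entries at 3 μM.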

Question: How did the fold induction at 5 µM turn out when `CNC(=O)c1ccc2c(c1)nc(Nc1nc3cc(F)c(F)cc3s1)n2C` [Example 86, 2-(5,6-Difluoro-benzothiazol-2-ylamino)-1-methyl-1H-benzoimidazole-5-carboxylic acid methylamide] was run?
Answer: Its fold induction at 5 µM is 9.7.

Question: With `CCOCCNC(=O)c1ccc2c(c1)nc(Nc1nc3cc(F)c(F)cc3s1)n2C` [Example 87, 2-(5,6-Difluoro-benzothiazol-2-ylamino)-1-methyl-1H-benzoimidazole-5-carboxylic acid (2-ethoxy-ethyl)-amide] as the molecule, how does the fold induction at 5 µM read?
Answer: The fold induction at 5 µM was 12.1.

Question: With `CNC(=O)c1ccc2c(c1)nc(Nc1nc3ccc(Cl)cc3s1)n2C` [Example 88, 2-(6-Chloro-benzothiazol-2-ylamino)-1-methyl-1H-benzoimidazole-5-carboxylic acid methylamide] as the molecule, how does the fold induction at 5 µM read?
Answer: The fold induction at 5 µM was 13.

Question: How did the fold induction at 5 µM turn out when `CCOCCNC(=O)c1ccc2c(c1)nc(Nc1nc3ccc(Cl)cc3s1)n2C` [Example 89, 2-(6-Chloro-benzothiazol-2-ylamino)-1-methyl-1H-benzoimidazole-5-carboxylic acid (2-ethoxy-ethyl)-amide] was run?
Answer: Its fold induction at 5 µM is 23.7.

Question: With `Cn1c(Nc2nc3ccc(OC(F)(F)F)cc3s2)nc2cc(C(=O)NC3CCN(S(C)(=O)=O)CC3)ccc21` [Example 90, 1-Methyl-2-(6-trifluoromethoxy-benzothiazol-2-ylamino)-1H-benzoimidazole-5-carboxylic acid (1-methanesulfonyl-piperidin-4-yl)-amide] as the molecule, how does the fold induction at 5 µM read?
Answer: Its fold induction at 5 µM is 8.1.

Question: `Cn1c(Nc2nc3ccc(OC(F)(F)F)cc3s2)nc2cc(C(=O)NCC(=O)OC(C)(C)C)ccc21` [Example 91, {[1-Methyl-2-(6-trifluoromethoxy-benzothiazol-2-ylamino)-1H-benzoimidazole-5-carbonyl]-amino}-acetic acid tert-butyl ester] was tested. Which fold induction at 5 µM did it give?
Answer: Its fold induction at 5 µM is 10.1.

Question: How did the fold induction at 5 µM turn out when `Cn1c(Nc2nc3ccc(OC(F)(F)F)cc3s2)nc2cc(C(=O)NC3CCN(C(=O)OC(C)(C)C)CC3)ccc21` [Example 92, 4-{[1-Methyl-2-(6-trifluoromethoxy-benzothiazol-2-ylamino)-1H-benzoimidazole-5-carbonyl]-amino}-piperidine-1-carboxylic acid tert-butyl ester] was run?
Answer: Its fold induction at 5 µM is 3.4.

Question: `Cn1c(Nc2nc3ccc(OC(F)(F)F)cc3s2)nc2cc(C(=O)NC3CCNCC3)ccc21` [Example 93, 1-Methyl-2-(6-trifluoromethoxy-benzothiazol-2-ylamino)-1H-benzoimidazole-5-carboxylic acid piperidin-4-ylamide hydrochloride] was tested. Which fold induction at 5 µM did it give?
Answer: The fold induction at 5 µM was 11.3.

Question: With `Cn1c(Nc2nc3ccc(OC(F)(F)F)cc3s2)nc2cc(C(=O)NC3CCCN(C(=O)OC(C)(C)C)C3)ccc21` (stereo not drawn) [Example 94, 3-{[1-Methyl-2-(6-trifluoromethoxy-benzothiazol-2-ylamino)-1H-benzoimidazole-5-carbonyl]-amino}-piperidine-1-carboxylic acid tert-butyl ester] as the molecule, how does the fold induction at 5 µM read?
Answer: The fold induction at 5 µM was 1.2.

Question: How did the fold induction at 5 µM turn out when `Cn1c(Nc2nc3ccc(OC(F)(F)F)cc3s2)nc2cc(C(=O)NC3CCCNC3)ccc21` (stereo not drawn) [Example 95, 1-Methyl-2-(6-trifluoromethoxy-benzothiazol-2-ylamino)-1H-benzoimidazole-5-carboxylic acid piperidin-3-ylamide hydrochloride] was run?
Answer: The fold induction at 5 µM was 11.2.

Question: With `Cn1c(Nc2nc3ccc(OC(F)(F)F)cc3s2)nc2cc(C(=O)NCc3nccs3)ccc21` [Example 96, 1-Methyl-2-(6-trifluoromethoxy-benzothiazol-2-ylamino)-1H-benzoimidazole-5-carboxylic acid (thiazol-2-ylmethyl)-amide] as the molecule, how does the fold induction at 5 µM read?
Answer: Its fold induction at 5 µM is 12.

Question: With `COC(=O)CCNC(=O)c1ccc2c(c1)nc(Nc1nc3ccc(OC(F)(F)F)cc3s1)n2C` [Example 97, 3-{[1-Methyl-2-(6-trifluoromethoxy-benzothiazol-2-ylamino)-1H-benzoimidazole-5-carbonyl]-amino}-propionic acid methyl ester] as the molecule, how does the fold induction at 5 µM read?
Answer: The fold induction at 5 µM was 19.2.
